# Tests used:
# [1] = Excerpt: (§1) Definitions of “spreading coefficient to the liquid having surface tension of 50 mN/m” and “water solubility” of the liquid film cleavage agent, as specified in the first aspect and the second aspect, and measuring methods of surface tension (γw) of a liquid film (liquid having surface tension of 50 mN/m), surface tension (γo) of a liquid film cleavage agent, interfacial tension (γwo) between the liquid film and the liquid film cleavage agent, and water solubility of the liquid film cleavage agent are as described in the paragraphs {0015} to {0022} in WO 2016/098796.
# Hereinafter, the present invention will be described more in detail with reference to Examples, but the present invention is not limited thereto. In addition, both terms “part” and “%” in the Examples are based on mass unless otherwise noted. […] In addition, a sign “-” in the following Tables means that neither an agent shown in a name of an item is used, nor the result has an applicable value in the item, or the like. Moreover, a leftward arrow “←” means that the content is the same as described in an adjacent column indicated by the arrow.
# (§2) On the occasion, as a “liquid having surface tension of 50 mN/m,” a solution was used, in which the solution was prepared by adding, to 100 g of deionized water, 3.75 μL of POE sorbitan monolaurate (trade name “RHEODOL Super TW-L120,” manufactured by Kao Corporation) being a nonionic surface active substance by a micropipette (trade name “ACURA 825,” manufactured by Socorex Isba SA), and adjusting the surface tension to 50±1 mN/m. Moreover, the water solubility was measured by adding the agent for every 0.0001 g.
# [2] = Interfacial tension of liquid film cleavage agent; format: physicochemical; conditions: 25° C., RH 65%
# Excerpt: as §1
# (§3) Hereinafter, the present invention will be described more in detail with reference to Examples, but the present invention is not limited thereto. In addition, both terms “part” and “%” in the Examples are based on mass unless otherwise noted. […]
# as §2
# [3] = Surface tension of liquid film cleavage agent; format: physicochemical; conditions: 25° C., RH 65%
# [4] = Spreading coefficient of liquid film cleavage agent; format: physicochemical; conditions: 25° C., RH 65%
# Excerpt: as §1, §3, §2
# [5] = Viscosity of liquid film cleavage agent; format: physicochemical; conditions: 25° C., RH 65%, average of three
# Experimental: First, 40 g of a liquid film cleavage agent is prepared. […] This operation is repeated three times, and an average value is adopted as the viscosity. In addition, when the liquid film cleavage agent is solid, the liquid film cleavage agent is heated to a temperature of a melting point of the liquid film cleavage agent plus 5° C. to induce phase transition into liquid, and the measurement is performed with keeping the temperature conditions.
# As a result of measuring viscosity by the method shown in (Method for measuring viscosity of liquid film cleavage agent) described above, the viscosity of the liquid film cleavage agent was 163 cps.
Water solubility [1],Interfacial tension to liquid having surface tension of 50 mN/m [2],Surface tension [3],Spreading coefficient to liquid having surface tension of 50 mN/m [4],Viscosity [5],Substance
← g,–,–,–,–,epoxy-modified dimethyl silicone
0.025 or less g,–,–,–,–,POP-modified dimethyl silicone [POP(12)-modified dimethyl silicone]
← g,12.8 mN/m,31.8 mN/m,5.4 mN/m,129 cps,POP alkyl ether [POP(15) alkyl ether]
0.025 or less g,–,–,–,–,PPG

# Source: patent publication US20200383844A1, “ABSORBENT ARTICLE” (Kao Corporation, priority 2017, published 2020)
